Experimental data from PMC9841531, “Indole Derivatives as New Structural Class of Potent and Antiproliferative Inhibitors of Monocarboxylate Transporter 1 (MCT1; SLC16A1)” (Journal of Medicinal Chemistry, 2022).

Legend:
MCF-7 cancer cells = assay: MTT-based cell viability assay, MCF-7; settings: Homo sapiens, MCF7, 72 h, read-out: MCF-7 cancer cell toxicity GI50 ± SEM
Description: (§1) MCT1-expressing cells have an extraordinary energy demand and rely on pyruvate metabolism, through either lactate conversion or pyruvate consumption. Inhibition of MCT1 blocks lactate and pyruvate influx into cancer cells, which prevents their processing in the TCA cycle. Over time, the viability of cells exposed to an MCT1 inhibitor is impaired due to pyruvate deprivation, which is compensated by upregulating glucose metabolism—leading to an overconsumption of glucose. To confirm the antiproliferative nature of the indole derivatives, we investigated the compounds toward the MCT1-expressing cell lines A-549[14],[15] and MCF-7.[16] Cancer cell viability was assessed via a 3-(4,5-dimethylthiazol-2-yl)-2,5-diphenyltetrazolium bromide (MTT) assay, as reported earlier.[43]
(§2) To determine the growth inhibitory potential of compounds 17–32, […] of each compound either at concentrations between 1 and 100 μM (A-549 or MCF-7) or at 10 and 50 μM (NIH/3T3) was pipetted into colorless flat-bottom 96-well microplates. Thereafter, 180 μL of a cell suspension (5000 cells/well) of either A-549, MCF-7, or NIH/3T3 cells was added and subsequently kept for 72 h at 37 °C under a 5% CO2-humidified atmosphere. The cell viability as well as the GI50 values were determined as described above.[43]

ABCB1 [1] = biological target: T1, ABCB1 (Homo sapiens, UniProt P08183); assay: daunorubicin assay, ABCB1-expressing A2780/ADR cells; format: cell-based; settings: A2780/ADR cells; read-out: ABCB1 daunorubicin IC50 ± SEM
T1 sequence (P08183 whole entry): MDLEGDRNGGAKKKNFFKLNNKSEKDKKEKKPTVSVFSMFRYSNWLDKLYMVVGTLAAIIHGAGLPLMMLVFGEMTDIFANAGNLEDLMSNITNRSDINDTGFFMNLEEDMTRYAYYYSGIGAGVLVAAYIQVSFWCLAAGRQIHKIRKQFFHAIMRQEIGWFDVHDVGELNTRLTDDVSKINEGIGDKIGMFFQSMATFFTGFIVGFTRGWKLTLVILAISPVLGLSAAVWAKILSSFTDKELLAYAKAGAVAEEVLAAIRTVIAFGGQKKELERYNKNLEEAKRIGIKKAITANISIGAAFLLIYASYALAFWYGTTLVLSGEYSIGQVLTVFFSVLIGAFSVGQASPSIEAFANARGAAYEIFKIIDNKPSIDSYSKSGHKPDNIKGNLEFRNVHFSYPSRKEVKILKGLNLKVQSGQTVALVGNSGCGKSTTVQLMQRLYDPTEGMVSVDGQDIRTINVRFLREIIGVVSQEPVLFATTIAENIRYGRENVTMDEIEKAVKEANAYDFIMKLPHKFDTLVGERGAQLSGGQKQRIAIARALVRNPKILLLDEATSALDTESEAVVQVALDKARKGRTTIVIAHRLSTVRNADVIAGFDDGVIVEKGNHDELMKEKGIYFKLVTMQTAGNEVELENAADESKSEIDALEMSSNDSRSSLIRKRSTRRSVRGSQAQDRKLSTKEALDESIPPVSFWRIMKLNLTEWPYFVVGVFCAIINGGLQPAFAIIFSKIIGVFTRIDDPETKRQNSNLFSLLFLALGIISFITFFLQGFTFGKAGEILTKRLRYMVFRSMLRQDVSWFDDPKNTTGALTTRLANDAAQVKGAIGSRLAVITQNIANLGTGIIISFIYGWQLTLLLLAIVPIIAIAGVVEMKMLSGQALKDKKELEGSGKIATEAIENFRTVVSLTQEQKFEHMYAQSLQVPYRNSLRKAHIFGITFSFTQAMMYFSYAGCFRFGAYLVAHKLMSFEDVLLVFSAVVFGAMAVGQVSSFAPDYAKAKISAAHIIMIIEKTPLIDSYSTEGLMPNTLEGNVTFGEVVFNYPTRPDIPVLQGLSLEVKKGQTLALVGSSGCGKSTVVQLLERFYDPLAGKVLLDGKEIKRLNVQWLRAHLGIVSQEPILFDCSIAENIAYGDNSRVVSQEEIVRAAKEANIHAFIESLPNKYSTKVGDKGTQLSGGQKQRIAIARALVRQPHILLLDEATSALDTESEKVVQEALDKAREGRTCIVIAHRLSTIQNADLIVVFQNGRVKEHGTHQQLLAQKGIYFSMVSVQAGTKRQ

[2] = biological target: ABCB1 (P-glycoprotein, P-gp) (Homo sapiens, UniProt P08183); assay: as above; format: cell-based; settings: human, ABCB1-expressing A2780/ADR cells, probe daunorubicin (3 μM final); relative to reference inhibitor 34 = 100%; read-out: maximal inhibition (Imax), ABCB1 daunorubicin
Sequence of ABCB1 (P-glycoprotein, P-gp) (P08183 whole entry): as above

A-549 cancer cells = assay: MTT-based cell viability assay, A-549; settings: Homo sapiens, A549, 72 h, read-out: A-549 cancer cell toxicity GI50 ± SEM
Description: as §1, §2

ABCB1 [3] = biological target: T1, ABCB1; assay: calcein AM assay, ABCB1-expressing A2780/ADR cells; settings: for IC50: read-out: ABCB1 calcein AM IC50 ± SEM, A2780/ADR cells, 22, 23 constrained to reference inhibitor 34; for ABCB1 inhibition: screening at 10 μM, inhibitor if 20% (+SEM) reached
Description: (§3) To provide a detailed picture of the pharmacological profile of the indole derivatives, we investigated their modulatory nature on the most prominent ABC transporters ABCB1 (P-glycoprotein, P-gp), ABCC1, (multidrug resistance-associated protein 1, MRP1), and ABCG2 (breast cancer resistance protein, BCRP). Here, we conducted calcein AM (ABCB1),[2],[52]−[59] daunorubicin (ABCC1),[52],[58]−[60] and pheophorbide A (ABCG2)[2],[52]−[60] assays using ABCB1-expressing A2780/ADR, ABCC1-expressing H69AR, and ABCG2-expressing MDCK II BCRP cells, respectively.
(§4) The calcein AM (ABCB1),[2],[52]−[59] daunorubicin (ABCB1[52],[60] and ABCC1[52],[58]−[60]), and pheophorbide A (ABCG2)[2],[52]−[60] assays were conducted as reported earlier. […] The data was processed using GraphPad Prism version 8.4.0, and IC50 values were determined, applying three- or four-parameter logistic equations, whatever was statistically preferred.

ABCC1 = ABCC1 (Homo sapiens, UniProt P33527); assay: daunorubicin assay, ABCC1-expressing H69AR cells; settings: for ABCC1 inhibition: screening at 10 μM, inhibitor if 20% (+SEM) reached; for inhibition at 10 µM: H69AR, read-out: inhibition of ABCC1 in screening; for IC50: read-out: ABCC1 daunorubicin IC50 ± SEM, H69AR cells, 22, 23 constrained to reference inhibitor 35
Sequence of ABCC1 (P33527 whole entry): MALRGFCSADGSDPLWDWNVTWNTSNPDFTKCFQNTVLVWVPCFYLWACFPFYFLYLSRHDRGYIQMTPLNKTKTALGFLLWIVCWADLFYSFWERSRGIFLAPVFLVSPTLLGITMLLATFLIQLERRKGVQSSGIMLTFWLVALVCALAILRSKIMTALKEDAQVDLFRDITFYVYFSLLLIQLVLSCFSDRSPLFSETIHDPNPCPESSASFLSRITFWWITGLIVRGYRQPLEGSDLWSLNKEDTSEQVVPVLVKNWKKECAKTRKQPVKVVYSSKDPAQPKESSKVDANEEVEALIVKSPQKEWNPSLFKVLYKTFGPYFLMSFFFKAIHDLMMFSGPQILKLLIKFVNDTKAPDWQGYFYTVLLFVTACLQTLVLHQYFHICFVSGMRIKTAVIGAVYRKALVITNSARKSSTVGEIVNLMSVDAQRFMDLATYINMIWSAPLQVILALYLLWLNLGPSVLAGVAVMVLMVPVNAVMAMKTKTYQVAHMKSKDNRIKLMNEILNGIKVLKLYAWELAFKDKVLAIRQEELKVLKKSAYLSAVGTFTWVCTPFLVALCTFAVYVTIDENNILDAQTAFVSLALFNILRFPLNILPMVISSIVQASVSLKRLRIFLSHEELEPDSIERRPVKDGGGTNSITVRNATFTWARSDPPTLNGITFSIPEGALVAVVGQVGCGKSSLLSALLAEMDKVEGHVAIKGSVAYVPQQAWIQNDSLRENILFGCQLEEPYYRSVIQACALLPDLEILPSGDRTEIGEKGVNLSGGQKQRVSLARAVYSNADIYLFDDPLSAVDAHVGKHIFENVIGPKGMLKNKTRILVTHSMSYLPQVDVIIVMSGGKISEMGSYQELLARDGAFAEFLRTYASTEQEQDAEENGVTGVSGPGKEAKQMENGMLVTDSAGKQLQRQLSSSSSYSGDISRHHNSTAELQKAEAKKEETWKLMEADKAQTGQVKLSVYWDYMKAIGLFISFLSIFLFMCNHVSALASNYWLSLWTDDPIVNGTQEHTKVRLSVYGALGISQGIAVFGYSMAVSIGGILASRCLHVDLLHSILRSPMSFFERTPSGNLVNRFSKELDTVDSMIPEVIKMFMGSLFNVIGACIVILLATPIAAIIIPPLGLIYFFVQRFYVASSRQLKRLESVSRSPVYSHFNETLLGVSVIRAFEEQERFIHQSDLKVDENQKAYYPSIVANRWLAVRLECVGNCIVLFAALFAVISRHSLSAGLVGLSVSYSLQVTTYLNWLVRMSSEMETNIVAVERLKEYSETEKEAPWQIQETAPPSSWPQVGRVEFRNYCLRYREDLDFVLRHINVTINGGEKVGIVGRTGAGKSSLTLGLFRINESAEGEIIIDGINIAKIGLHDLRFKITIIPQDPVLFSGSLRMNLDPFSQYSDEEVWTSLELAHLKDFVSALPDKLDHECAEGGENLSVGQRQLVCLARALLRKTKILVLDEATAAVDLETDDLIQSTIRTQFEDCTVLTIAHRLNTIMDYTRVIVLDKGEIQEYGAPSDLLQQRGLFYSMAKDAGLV
Description: as §3, §4

MCT1 [4] = biological target: T2, MCT1 (Homo sapiens, UniProt P53985); assay: functional 3-BP cell viability assay (MCT1 transport inhibition); format: cell-based; settings: MCT1-expressing A-549 cells, 50 μM 3-BP, 72 h; read-out: MCT1 transport inhibition IC50 ± SEM
T2 construct: MCT1-expressing A-549 cells[14],[15] were exposed to the MCT1 substrate 3-BP, which becomes influxed by MCT1; endogenous in cells; host or cells: A-549 lung cancer cells (from NCCS, Pune)
T2 sequence (P53985 1-500): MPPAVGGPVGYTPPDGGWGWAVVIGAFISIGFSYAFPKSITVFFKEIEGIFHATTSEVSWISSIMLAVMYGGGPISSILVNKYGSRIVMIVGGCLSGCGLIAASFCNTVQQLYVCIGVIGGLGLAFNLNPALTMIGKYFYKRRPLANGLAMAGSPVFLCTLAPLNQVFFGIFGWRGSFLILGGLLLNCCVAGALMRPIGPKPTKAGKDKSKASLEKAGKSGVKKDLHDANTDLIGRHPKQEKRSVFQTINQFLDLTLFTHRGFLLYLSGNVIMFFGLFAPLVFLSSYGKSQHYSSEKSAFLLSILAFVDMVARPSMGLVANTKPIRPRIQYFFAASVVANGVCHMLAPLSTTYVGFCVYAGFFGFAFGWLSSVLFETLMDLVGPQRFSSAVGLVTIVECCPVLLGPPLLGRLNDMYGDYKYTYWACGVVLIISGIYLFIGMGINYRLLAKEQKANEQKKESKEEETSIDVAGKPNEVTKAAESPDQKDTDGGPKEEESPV
T2 sequence (P35613 140-385 partner limits assumed): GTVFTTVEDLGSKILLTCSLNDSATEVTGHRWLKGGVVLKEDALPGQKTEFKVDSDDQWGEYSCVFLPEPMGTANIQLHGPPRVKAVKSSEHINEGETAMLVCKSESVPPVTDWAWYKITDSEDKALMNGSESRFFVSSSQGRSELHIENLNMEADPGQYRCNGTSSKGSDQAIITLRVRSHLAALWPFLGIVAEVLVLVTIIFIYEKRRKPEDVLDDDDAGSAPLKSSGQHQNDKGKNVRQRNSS
Protocol: The inhibitory activity of indole derivatives against MCT1 was determined by applying a functional 3-bromopyruvate (3-BP) cell viability assay, as described in the literature[20],[39] with minor modifications. In short, MCT1-expressing A-549 cells[14],[15] were exposed to the MCT1 substrate 3-BP, which becomes influxed by MCT1. 3-BP is toxic, leading to decreased cell viability. Functional inhibition of MCT1 results in reduced intracellular 3-BP levels and, thus, enhanced cell viability compared to no inhibition. […] Table 1 provides the half-maximal inhibition concentration (IC50) values of compounds 17–32.
A functional 3-BP cytotoxicity assay was conducted as described in the literature[20],[39] with minor modifications. Dilution series of compounds 17–32 between 1 nM and 1 μM were prepared in DPBS (Cell Clone, Genetix Biotech Asia, New Delhi India), and 10 μL of each concentration was pipetted into a colorless flat-bottom 96-well microplate (SPL Life Sciences, Gyeonggi-do, Republic of Korea). One hundred and eighty microliters of a cell suspension (5000 cells/well) of A-549 cells was added, and subsequently, 10 μL of 3-BP was added at a concentration of 1 mM (final concentration per well: 50 μM). The plate was kept for 72 h at 37 °C under a 5% CO2-humidified atmosphere. Cell viability was determined as described before[43] by adding 20 μL of a 5 mg/mL solution of MTT to each well and further incubation for 1 h. Eventually, the supernatant was removed and 100 μL of DMSO was added to each well. The absorbance was spectrophotometrically determined at 570 nm using a SpectraMax iD3 multi-mode microplate reader (Molecular Devices, San Jose, CA) with a background correction (690 nm). The determined absorbance values were correlated to the logarithmic concentrations of compounds 17–32, and IC50 values were calculated applying nonlinear regression using GraphPad Prism (version 8.4.0., San Diego, CA).

ABCG2 = biological target: T3, ABCG2 (Homo sapiens, UniProt Q9UNQ0); assay: pheophorbide A assay, ABCG2-expressing MDCK II BCRP cells; settings: for ABCG2 inhibition: screening at 10 μM, inhibitor if 20% (+SEM) reached
T3 sequence (Q9UNQ0 1-655): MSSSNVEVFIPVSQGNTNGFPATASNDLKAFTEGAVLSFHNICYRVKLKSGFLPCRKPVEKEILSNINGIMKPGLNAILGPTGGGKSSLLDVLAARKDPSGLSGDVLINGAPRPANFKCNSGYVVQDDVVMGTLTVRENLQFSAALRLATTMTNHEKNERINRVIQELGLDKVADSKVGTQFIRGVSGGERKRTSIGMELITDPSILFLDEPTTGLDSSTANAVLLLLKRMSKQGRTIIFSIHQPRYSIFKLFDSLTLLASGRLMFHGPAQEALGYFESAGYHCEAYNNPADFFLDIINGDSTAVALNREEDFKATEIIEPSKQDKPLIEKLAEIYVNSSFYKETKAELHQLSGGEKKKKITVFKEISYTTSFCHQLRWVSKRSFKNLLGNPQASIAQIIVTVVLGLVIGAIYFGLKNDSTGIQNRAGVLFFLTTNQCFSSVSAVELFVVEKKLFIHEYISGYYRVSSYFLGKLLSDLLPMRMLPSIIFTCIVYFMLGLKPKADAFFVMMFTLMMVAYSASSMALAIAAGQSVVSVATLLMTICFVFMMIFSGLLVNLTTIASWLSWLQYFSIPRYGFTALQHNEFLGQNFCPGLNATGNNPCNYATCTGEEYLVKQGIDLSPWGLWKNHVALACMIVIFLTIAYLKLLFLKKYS
Description: as §3, §4

ABCG2 (BCRP) = biological target: T4, ABCG2 (BCRP) (Homo sapiens, UniProt Q9UNQ0); assay: as above; settings: human, ABCG2-expressing MDCK II BCRP cells, probe pheophorbide A (0.5 μM final)
T4 sequence (Q9UNQ0 1-655): T3 sequence (Q9UNQ0 1-655)
Description: as §3, §4

MCT1 [5] = biological target: T2, MCT1; settings: cited from earlier work

| Structure (SMILES) | GI50 (MCF-7 cancer cells) [µM] | IC50 (ABCB1 [1]) [µM] | inhibition at 180 min [2] [%] | GI50 (A-549 cancer cells) [µM] | IC50 (ABCB1 [3]) [µM] | ABCB1 inhibition (ABCB1 [3]) | ABCC1 inhibition (ABCC1) | IC50 (MCT1 [4]) [µM] | IC50 (ABCG2) [µM] | ABCG2 inhibition (ABCG2) | inhibition at 120 min, 10 μM (ABCG2 (BCRP)) [%] | inhibition at 10 µM (ABCC1) [%] | IC50 (ABCC1) [µM] | inhibitory power (MCT1) in the literature (MCT1 [5]) |
| --- | --- | --- | --- | --- | --- | --- | --- | --- | --- | --- | --- | --- | --- | --- |
| COC(=O)/C(C#N)=C/c1cn(CC(=O)Nc2ccc(Br)cn2)c2ccccc12 [Compound 31, Methyl-3-(1-(2-((5-bromopyridin-2-yl)amino)-2-oxoethyl)-1H-indol-3-yl)-2-cyanoacrylate] | 3.13 ± 0.23 | 1.19 ± 0.12 | 39 | 18.8 ± 0.2 | 1.4 ± 0.11 | X (Compounds were considered as inhibitors if they reached 20% (+SEM) inhibition compared to the reference inhibitors 33–35; X = fulfilled) | X (Compounds were considered as inhibitors if they reached 20% (+SEM) inhibition compared to the reference inhibitors 33–35; X = fulfilled) | 0.214 ± 0.032 |  |  |  |  |  |  |
| COC(=O)/C(C#N)=C/c1cn(CC(=O)Nc2cccc(OC)c2)c2ccccc12 [Compound 23, Methyl-2-cyano-3-(1-(2-((3-methoxyphenyl)amino)-2-oxoethyl)-1H-indol-3-yl) Acrylate] | 14.7 ± 0.2 |  |  | 25.5 ± 0.5 | 5.32 ± 1.67 | X (Compounds were considered as inhibitors if they reached 20% (+SEM) inhibition compared to the reference inhibitors 33–35; X = fulfilled) | X (Compounds were considered as inhibitors if they reached 20% (+SEM) inhibition compared to the reference inhibitors 33–35; X = fulfilled) | 0.105 ± 0.009 | 43.5 ± 7.5 | X (Compounds were considered as inhibitors if they reached 20% (+SEM) inhibition compared to the reference inhibitors 33–35; X = fulfilled) | ≥ 20 | ≥ 20 | 19.1 ± 3.4 |  |
| COC(=O)/C(C#N)=C/c1cn(CC(=O)Nc2ccccc2OC)c2ccccc12 [Compound 22, Methyl-2-cyano-3-(1-(2-((2-methoxyphenyl)amino)-2-oxoethyl)-1H-indol-3-yl) Acrylate] | 19.1 ± 0.5 |  |  | 26 ± 0.3 | 24.3 ± 6.4 | X (Compounds were considered as inhibitors if they reached 20% (+SEM) inhibition compared to the reference inhibitors 33–35; X = fulfilled) | X (Compounds were considered as inhibitors if they reached 20% (+SEM) inhibition compared to the reference inhibitors 33–35; X = fulfilled) | 0.135 ± 0.002 | 99.5 ± 24.5 | X (Compounds were considered as inhibitors if they reached 20% (+SEM) inhibition compared to the reference inhibitors 33–35; X = fulfilled) | ≥ 20 | ≥ 20 | 17.3 ± 2.2 |  |
| N#C/C(=C\c1ccc(O)cc1)C(=O)O [Compound 8, reference compound] | 108 ± 3 |  |  | 52.7 ± 0.2 |  |  |  | 0.0872 ± 0.0035 |  |  |  |  |  | submillimolar to low micromolar concentration ranges |
